Here are results for one substance from patent publication US12162934B2, “Gremlin-1 antagonist for the prevention and treatment of cancer” (UCB BIOPHARMA SRL, priority 2018, dated 2024).

Assay [1] relates to 5TGM1.Bmx1 MM PCs. Description: 5TGM1/KaLwRij mouse model of multiple myeloma, antibody after tumour cell inoculation. It counts as in vivo. Particulars: for Reduction in MM tumour burden (BLI): 30 mg/kg s.c. every 3 days from 3 days post-inoculation, 4 weeks. On the procedure:
Targeting Grem1 in an immunocompetent murine model of systemic MM: C57BL/KaLwRij mice (6-8-week-old) were inoculated with 5×10^5 5TGM1.Bmx1 cells via tail vein injection. Three days post-inoculation with 5TGM1.Bmx1 MM PCs, KaLwRij mice were administered with 30 mg/kg Grem1-neutralising antibody Ab7326 or IgG control Ab101.4 (UCB-Pharma, UK) by subcutaneous (s.c.) injection. Mice were treated every 3 days for the duration of the 4-week model. Tumour burden was monitored weekly by BLI as previously described. At the end of the experiment, blood was collected by tail bleed, centrifuged at 2100 g for 10 min and serum collected. Serum paraprotein levels were analysed using the Hydragel 30 β1β2 kit (Sebia Electrophoresis, Georgia, USA) following the instructions of the manufacturer. The band corresponding to paraprotein was quantitated relative to serum albumin levels. (SAAMRI Animal Ethics SAM165)

For assay [2], the system named is PyMT-B01 mouse breast cancer cells. Description: PyMT-B01 breast cancer model in C57BL6 mice (BLI). The assay is classed as in vivo. On the procedure:
PyMT-B01: 5-week old C57BL6 immunocompetent mice were subcutaneously (s.c) administered two 30 mg/kg doses of anti-Grem1 antibody Ab7326 or IgG control, Ab101.4, the week prior to tumour cell inoculation. 1×10^5 luciferase expressing PyMT-B01 mouse breast cancer cells were injected systemically via the caudal artery (CA).
Treatment continued twice weekly for the duration of the study. At weekly intervals, mice were administered 150 mg/kg luciferin intraperitoneally (i.p) and imaged using the Xenogen IVIS Bioluminescence Imaging System, and tumour burden was quantitated using Living Image software. The study ended on day 13 and day 22 post-tumour cell injection for the PyMT-B01 and MDA-MB-231 models respectively, according to animal ethics requirements. Organs were dissected upon culling animals and BLI imaged ex vivo for analysis of tumour metastasis.

Assay [3] deals with T1, human Gremlin (Homo sapiens, UniProt O60565).
T1 sequence (O60565 25-184): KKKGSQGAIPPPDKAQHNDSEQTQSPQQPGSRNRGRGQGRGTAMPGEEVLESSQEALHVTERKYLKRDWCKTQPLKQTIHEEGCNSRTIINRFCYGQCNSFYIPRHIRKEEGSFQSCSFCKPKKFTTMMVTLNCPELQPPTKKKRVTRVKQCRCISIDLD
Nature of the assay: Hek-Id1 reporter gene assay: anti-Gremlin-1 antibodies restoring BMP signalling blocked by human Gremlin. The following applies: 10-fold excess and 80% inhibition Gremlin-1 concentration. It counts as cell-based. From the text:
The Hek Id1 reporter gene assay uses Clone 12 Hek293-Id1 reporter cells. This cell line was stably transfected with Id1 transcription factor. Id1 is a transcription factor in the BMP signalling pathway. Gremlin is known to bind BMPs prevent binding to their receptors reducing the luciferase signal from the reporter gene. Therefore, using this reporter assay, it is possible to screen anti-Gremlin antibodies and see if there are any that block the interaction of Gremlin with BMPs. A restoration of the luciferase signal is seen in these cells if there is a blocking of this interaction.
Clone 12 cells were cultured in DMEM containing 10% FCS, 1× L-Glutamine & 1× NEAA. […]
The cells were washed in PBS, lifted off using cell dissociation buffer, spun and counted before being seeded at 5×10^4/well in 70 μl (Density of 7.14×10^5/ml). […]
Post incubation, 30 μl of sample was transferred per well of assay plate and incubated for 20-24 hours before measuring luminescence signal.
Cell Steady Glo was thawed in advance at room temperature. […] Luciferase signal was detected by addition of cell steady glo reagent (100 μl) for 20 minutes on shaker at room temperature and measuring luminescence using cell titre glo protocol on Synergy 2. […]
The percentage of inhibition from dose response assays was calculated based on the maximum and minimum signals in the assay and the data fitted using 4 parameter logistical fit. […]
For orientation: Reporter assays use an easily measured gene product as a stand-in for the process of interest.

Assay [4] concerns the target T2, rhGrem1 (Homo sapiens, UniProt O60565).
T2 sequence (O60565 25-184): T1 sequence (O60565 25-184)
Nature of the assay: Western blot of Smad1/5/9 phosphorylation in murine 4T1 breast cancer cells. It counts as cell-based, mouse. Particulars: 10 ng/ml BMP2, 100 ng/ml rhGrem1 pre-incubated with antibody; vs isotype control. On the procedure:
Murine 4T1 BrCa cells were seeded into 6-well plates and cultured until 80% confluent. Cells were starved in serum-free medium overnight, and then stimulated with indicated treatments for 2 hrs. Cell lysates were prepared and equivalent amounts of protein (50 μg) were separated on 10% sodium dodecyl sulphate-polyacrylamide gel electrophoresis (SDS-PAGE) gels and transferred to nitrocellulose membranes. Immunoblotting was performed with phospho-Smad1/5/9 antibodies (cell signalling technologies, 1:1000 dilution). Equal loading of protein samples was confirmed by blotting membranes with antibodies against β-actin (Sigma Aldrich, 1:2500 dilution). Proteins were visualised using the Odyssey Infrared Imaging System (LI-COR Bioscience, Lincoln, NE, USA).
As Grem1 is a known BMP-2/4/7 antagonist, we assessed the ability of UCB antibody Ab7326 to inhibit Grem1-induced inhibition of Smad1/5/9 phosphorylation via western blot analysis. Murine 4T1 breast cancer cells exposed to 10 ng/ml BMP2 which led to Smad1/5/9 phosphorylation. Co-incubation with 100 ng/ml rhGrem1 inhibited this BMP2-mediated Smad1/5/9 phosphorylation.
(In general: A western blot detects proteins with antibodies after separation by electrophoresis.)

With “Ab7326: allosteric inhibitory anti-Gremlin-1 antibody from a naïve human library; CDRs SEQ ID NOS 4 to 9; mouse IgG1 in mouse experiments”, the “Reduction in MM tumour burden (BLI)” value in assay [1] (vs IgG control) was around 50%. Also, the “Reduction in MM tumour burden (BLI)” value in assay [1] (vs IgG control, listed as Grem1-neutralising antibody) is “approximately 50%”. Also, in assay [1] (antibody after tumour cell inoculation, vs IgG control), the “Tumour burden in the hindlimb bones (BLI)” value is reported as “significant reduction”. The Splenic tumour burden entry in assay [1] (post-tumour cell inoculation group) was “downwards trend”. Further, in assay [1] (week 4, vs IgG control), the “M-spike intensity relative to serum albumin (SPEP)” value is recorded as “significantly lower”. Besides, the “Reduction in overall tumour burden (BLI)” value in assay [2] (day 13, 30 mg/kg s.c. twice weekly, vs isotype control Ab101.4) is 35%. In addition, in assay [2] (vs isotype control), the “Liver metastatic tumour burden (BLI)” value was “downward trend” and the “Lung metastatic tumour burden (ex vivo BLI)” value is listed as “statistically significant reduction”. Also, in assay [3], the “Blocking ability in the Hek-Id1 reporter gene assay” value is on record as “maintained blocking ability”. Also, the “Smad1/5/9 phosphorylation in 4T1 cells” value in assay [4] is reported as “partially restored”.
